“Also recorded” adds a separate entry of the source. Read-outs that look alike come from different tables or passages of the source.
Assays:
[1] = test system: nucleoli in RPE1 normal cells; test: IC50 disrupting nucleoli in normal cells (RPE1); format: cell-based; conditions: Homo sapiens, RPE-1
PNC in HeLa cancer cells = test: PNC inhibition: IC50 inhibiting PNC in cancer cells (HeLa); format: cell-based; conditions: for IC50: Homo sapiens, HeLa cancer cells, inhibiting PNC; for fold more potent than metarrestin: PNC inhibition, versus metarrestin; for IC50 nucleoli.normal/IC50 PNC.cancer: ratio RPE1 nucleoli IC50 to HeLa PNC IC50
Method: PNC inhibitory activity was determined using fluorescent imaging techniques known in the art, such as: a CellTiter-Glo® luminescence assay from Promega to determine cell viability and/or fluorescent imaging studies with an IN Cell Analyzer 1000 automated system in combination with a green fluorescent protein (GFP) tagged PNC localized complex.

eEF1A2 [2] = biological target: T1, eEF1A2 (Homo sapiens, UniProt Q05639); test: Western blot analysis of eEF1A2 protein levels; format: cell-based; design: dose or concentration left out as unconfirmed; conditions: actin loading control, vehicle as standard of one; preliminary
T1 construct: Compound 49 treatment for 20 hours reduced eEF1A2 by Western blot analysis; endogenous in cells
T1 sequence (Q05639 1-463): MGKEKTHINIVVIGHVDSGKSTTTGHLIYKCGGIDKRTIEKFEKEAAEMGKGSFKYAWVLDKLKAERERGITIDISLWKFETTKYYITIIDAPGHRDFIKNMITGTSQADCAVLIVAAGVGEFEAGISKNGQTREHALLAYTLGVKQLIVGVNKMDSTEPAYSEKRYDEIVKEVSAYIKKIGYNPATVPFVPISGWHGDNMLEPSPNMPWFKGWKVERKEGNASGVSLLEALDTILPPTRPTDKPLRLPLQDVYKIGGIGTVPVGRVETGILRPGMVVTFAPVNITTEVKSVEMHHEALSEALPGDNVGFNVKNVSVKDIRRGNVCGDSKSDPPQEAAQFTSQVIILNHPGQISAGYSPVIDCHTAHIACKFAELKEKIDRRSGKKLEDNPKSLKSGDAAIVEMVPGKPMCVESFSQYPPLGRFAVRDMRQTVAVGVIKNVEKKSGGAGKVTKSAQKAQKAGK
From the text: FIGS. 6A and 6B show results from metarrestin-PROTAC studies.

[3] = test system: PNC prevalence in HeLA cells; test: Percentage of HeLa cells with PNCs after treatment (FIG. 7); format: cell-based
From the text: PNC prevalence is correlated with metastatic potential and can be disrupted through modulation of the elongation factor eEF1A.

[4] = Large mammal dose-escalation studies; format: in vivo; conditions: overloading dosing
From the text: Thus, the potential for dose-limiting neurological side effects could constrain the patient population to drug-resistant or late-stage individuals. However, cancer patient outcomes would generally greatly benefit from adjuvant or co-administration use of an anti-metastasis agent such as metarrestin at any stage of cancer. Therefore, in order to improve the cancer cell selectivity and reduce potential toxicity to normal cells, development of next generation metarrestin derivatives that selectively enhance drug efficacy against cancer cells over normal cells were needed.

[5] = test system: PC3M (metastatic prostate cancer cell line); conditions: PC3M xenograft, reference [5]; cited from earlier work
PNC in PC3M cells = test: PNC disassembly in PC3M cells with eEF1A2 overexpression; format: cell-based; conditions: FIG. 3D
From the text: (§1) FIGS. 3A-3E show metarrestin binding and cellular data. FIG. 3A presents data showing that metarrestin specifically binds eEF1A2, and increased eEF1A2 enhances PNCs and metastasis formation. […] Mice from both groups were harvested six weeks after implantation and subjected to necropsy. […] Histopathological images (H&E) of livers (black scale bar=250 μm, white scale bar=100 μm) are shown on the right. Insets depict representative metastatic lesions.
(§2) With respect to the metarrestin target eEF1A2, the biased expression of eEF1A2 in cancer cells over normal adult cells (except neuronal cells) was used to selectively target cancer cells. […] Increased eEF1A2 enhances PNC number per cell (FIG. 3C) and metastasis formation (FIG. 3E). […] Expression of eEF1A2 is associated with cancer metastasis and correlates with poor patient outcomes.

PANC1 [6] = test: Survival of PANC1 tumor-bearing animals; format: in vivo, mouse; conditions: for animal survival, treatment started post-macrometastasis formation / animal survival, treatment started prior to macrometastasis formation: food pellets, 10 mg/kg daily; for animal survival, treatment started post-macrometastasis formation: start eight weeks post-inoculation, FIG. 2F; for animal survival, treatment started prior to macrometastasis formation: start four weeks post-inoculation, FIG. 2E; for organ tumor replacement at autopsy (liver, lung, pancreas): treatment after macrometastasis, versus regular food pellets, FIG. 2G
Method: (§3) FIGS. 2A-2F show metarrestin and various studies.
(§4) Using a high-content screen to measure reduction of PNC prevalence, noncytotoxic PNC inhibitor hit compounds were discovered such as metarrestin, (FIG. 2A). […] Metarrestin was further evaluated in xenograft models of PC3M (metastatic prostate cancer cell line) and in a breast cancer patient-derived xenograft (PDX, harvested from a lung metastasis site). […] When the survival of the PANC1 tumor-bearing animals was evaluated, two sets of experiments were performed to determine efficacy at two treatment starting points, either after (eight weeks post-inoculation) or prior to (four weeks post-inoculation) macrometastasis had been established.

PANC1 [7] = test: Orthotopic mouse model with 3-D cultured PANC1 cells (metastasis); format: in vivo
Method: as §3, §4

eEF1A2 [8] = biological target: T1, eEF1A2; test: Thermal stability assay using PC3M cell lysate; format: binding; conditions: FIG. 3B
From the text: as §1, §2

eEF1A2 [9] = biological target: T1, eEF1A2; test: Competition with anchored biotinylated metarrestin-eEF1A2 complex; format: binding; conditions: FIG. 3A
From the text: as §1, §2

migration and invasion = conditions: reference [5]; cited from earlier work
eEF1A2 [10] = biological target: T1, eEF1A2; conditions: similar treatment conditions, reference [5]; cited from earlier work
[11] = daily treatment for up to three months, animals, reference [5]; cited from earlier work
[12] = reference [29], cited from earlier work
[13] = test system: breast cancer patient-derived xenograft; conditions: PDX harvested from a lung metastasis site, reference [5]; cited from earlier work

SMILES: N=c1c2c(-c3ccccc3)c(-c3ccccc3)n(Cc3cccc(CNC(=O)CCCCCNc4cccc5c4C(=O)N(C4CCC(=O)NC4=O)C5=O)c3)c2ncn1C1CCC(O)CC1 (stereo not shown) [Compound 46]
- IC50 [1]: 0.47 µM
- IC50 (PNC in HeLa cancer cells): 0.11 µM
- fold more potent than metarrestin (PNC in HeLa cancer cells): threefold
- IC50 nucleoli.normal/IC50 PNC.cancer (PNC in HeLa cancer cells): 4.27

SMILES: O=C1CCC(N2C(=O)c3cccc(NCCCCCNC(=O)c4ccc(Cn5c(-c6ccccc6)c(-c6ccccc6)c6c(NC7CCC(O)CC7)ncnc65)cc4)c3C2=O)C(=O)N1 (stereo not shown) [Compound 49]
- IC50 [1]: 0.1 µM
- IC50 (PNC in HeLa cancer cells): 0.025 µM
- fold more potent than metarrestin (PNC in HeLa cancer cells): 14 fold
- IC50 nucleoli.normal/IC50 PNC.cancer (PNC in HeLa cancer cells): 4
- eEF1A2 protein levels by Western blot (eEF1A2 [2]): significantly reduced; also recorded: significant reduction

SMILES: N=c1c2c(-c3ccccc3)c(-c3ccccc3)n(Cc3ccccc3)c2ncn1[C@H]1CC[C@H](OC(=O)CCCNc2cccc3c2C(=O)N(C2CCC(=O)NC2=O)C3=O)CC1 (stereo partly shown) [Compound 56]
- PNC prevalence (percentage of cells with PNCs) [3]: almost complete disruption of PNC prevalence
- PNC prevalence (percentage of cells with PNCs) ([3]; 0.1 μM): measureable reduction in PNC prevalence

SMILES: N=c1c2c(-c3ccccc3)c(-c3ccccc3)n(Cc3ccccc3)c2ncn1[C@H]1CC[C@H](OC(=O)CCOCCOCCOCCNc2cccc3c2C(=O)N(C2CCC(=O)NC2=O)C3=O)CC1 (stereo partly shown) [Compound 57]
- PNC prevalence (percentage of cells with PNCs) [3]: almost complete disruption of PNC prevalence
- PNC prevalence (percentage of cells with PNCs) ([3]; 0.1 μM): measureable reduction in PNC prevalence

SMILES: N=c1c2c(-c3ccccc3)c(-c3ccccc3)n(Cc3ccccc3)c2ncn1[C@H]1CC[C@H](O)CC1 [Metarrestin]
- seizures [4]: reversible seizures
- organ metastasis [5]: significant inhibition of organ metastasis
- change of IC50 for PNC disassembly on eEF1A2 overexpression (PNC in PC3M cells): increased the IC50
- animal survival, treatment started post-macrometastasis formation (PANC1 [6]; 10 mg/kg): significantly improved animal survival
- animal survival, treatment started post-macrometastasis formation (PANC1 [6]; listed as metarrestin, 10 mg/kg): effective at extending survival
- animal survival, treatment started prior to macrometastasis formation (PANC1 [6]): drastic animal survival advantages
- animal survival, treatment started prior to macrometastasis formation (PANC1 [6]; 10 mg/kg): completely prevented metastasis-induced death
- organ tumor replacement at autopsy (liver, lung, pancreas) (PANC1 [6]): did not show significant tumor replacement
- organ tumor replacement at autopsy (liver, lung, pancreas) (PANC1 [6]; listed as metarrestin): less tumors were present
- IC50 [1]: 2.5 µM
- metastasis as organ/tumor ratio in liver and lung (PANC1 [7]; 5 mg/kg and 25 mg/kg, FIG. 2B): inhibits metastasis
- metastatic burden in lung and liver (PANC1 [7]; 25 mg/kg IP daily for four weeks): significantly reduced the metastatic burden
- primary tumor growth (PANC1 [7]; 25 mg/kg IP daily for four weeks, data not shown): only modest reduction
- metastasis as metastatic deposits in liver and lung (PANC1 [7]; 25 mg/kg, FIG. 2C): inhibits metastasis
- IC50 (PNC in HeLa cancer cells): 0.36 µM
- IC50 nucleoli.normal/IC50 PNC.cancer (PNC in HeLa cancer cells): 6.25
- thermal stabilization of eEF1A2 (eEF1A2 [8]): stabilized eEF1A; also recorded: stabilized eEF1A2
- competition of recombinant eEF1A2 binding to anchored biotinylated metarrestin (eEF1A2 [9]): effectively outcompeted
- in vitro anti-oncogenic properties (migration and invasion): migration and invasion inhibition
- eEF1A2 protein levels (eEF1A2 [10]): does not reduce the protein levels
- adverse effects [11]: does not induce discernable adverse effects
- half-life ([12]; allows once-a-day dosing): long
- tissue distribution [12]: good
- metastatic tumor growth [13]: metastatic tumor growth inhibition

Source: patent publication US20260028342A1, “ENHANCING ANTIMETASTASIS ACTIVITY USING TARGETED PROTEIN DEGRADATION” (THE UNIVERSITY OF NORTH CAROLINA AT CHAPEL HILL, priority 2022, published 2026)
